Measurements as given in US5086074A, “1-aminomethyl-1,2,3,4-tetrahydronaphthalenes” (Abbott Laboratories, priority 1990, dated 1992).
Counter-ions that a name gives are not always drawn.

Target: T1, alpha-1-receptor (Rattus norvegicus, UniProt P15823)
T1 construct: rat liver homogenates; from tissue; host or cells: rat liver homogenate
T1 sequence (P15823 1-515): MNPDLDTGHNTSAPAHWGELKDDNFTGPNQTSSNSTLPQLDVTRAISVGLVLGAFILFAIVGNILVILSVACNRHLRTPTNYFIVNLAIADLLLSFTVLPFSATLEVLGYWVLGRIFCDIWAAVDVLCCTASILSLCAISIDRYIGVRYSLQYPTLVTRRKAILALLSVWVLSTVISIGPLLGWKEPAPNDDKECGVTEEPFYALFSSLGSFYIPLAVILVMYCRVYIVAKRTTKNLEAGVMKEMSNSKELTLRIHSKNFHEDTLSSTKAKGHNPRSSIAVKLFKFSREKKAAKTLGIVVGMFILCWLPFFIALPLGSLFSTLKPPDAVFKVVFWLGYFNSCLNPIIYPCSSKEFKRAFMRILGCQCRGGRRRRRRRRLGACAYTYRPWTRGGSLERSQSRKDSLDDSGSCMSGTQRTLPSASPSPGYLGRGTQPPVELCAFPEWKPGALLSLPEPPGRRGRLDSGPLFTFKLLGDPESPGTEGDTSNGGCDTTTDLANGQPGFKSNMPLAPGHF
Assay: Radioligand binding, alpha-1 adrenoceptor, rat liver homogenates, [3H]-prazosin
Settings: rat liver homogenates, [3H]-prazosin; read-out: Ki alpha-1
Experimental: The compounds were assessed for alpha-adrenergic receptor subtype selectivity by use of radioligand binding techniques as described previously (DeBernardis et.al. J. Med. Chem. 28, 1398 (1985)).

Point of comparison: `CN(CCc1cccs1)CC1CCCc2cc(O)ccc21` (stereo not drawn) [Example 7, 1-((N-Methylamino)methyl N-(2-(2-thienyl)ethyl)) 6-hydroxy tetralin hydrochloride], Ki 565 nM. Against it:
- COc1ccc2c(c1)CCCC2CN(C)CCc1cccs1 (stereo not drawn) [Example 5, ((N-Methylamino)methyl-N-(2-(2-thienyl)ethyl)) 6-methoxy tetralin methanesulfonate] — within 1.5-fold, 580 nM
- COc1ccc2c(c1)CCCC2CN(C)CCc1cccc(F)c1 (stereo not drawn) [Example 6b, 1-((N-methylamino)methyl-N-(2-(m-fluorophenyl)ethyl))-6-methoxy tetralin hydrochloride] — 2.1-fold higher, 1180 nM
- COc1ccc2c(c1)CCCC2CN(C)CCc1ccsc1 (stereo not drawn) [Example 6d, 1-((N-methylamino)methyl-N-(2-(3-thienyl)ethyl))-6-methoxy tetralin hydrochloride] — within 1.5-fold, 500 nM
- COc1ccc2c(c1)CCCC2CN(C)CCC1CCCC1 (stereo not drawn) [Example 6f, 1-((N methylamino)methyl -N-(2-(cyclopentyl)ethyl))-6-methoxy tetralin hydrochloride] — 3.8-fold higher, 2160 nM
- COc1ccc2c(c1)CCCC2CN(C)CCc1cccn1C (stereo not drawn) [Example 12, 1-((N-Methylamino)methyl-N-(2-(N-methyl-2-pyrrolyl)ethyl))-6-methoxy tetralin fumarate] — 2.1-fold higher, 1210 nM
- CN(CCc1cccs1)CC1CCCc2ccccc21 (stereo not drawn) [Example 22, 1-((N-Methylamino)methyl-N-(2-(2-thienyl)ethyl)) tetralin hydrochloride] — within 1.5-fold, 695 nM
- CN(CCc1cccs1)CC1CCCc2c1ccc1c2OCO1 (stereo not drawn) [Example 23, 1-((N-Methylamino)methyl-N-(2-(2-thienyl)ethyl))-5,6-methylenedioxy tetralin hydrochloride] — within 1.5-fold, 445 nM
- COc1cc2c(c(OC)c1)C(CN(C)CCc1cccs1)CCC2 (stereo not drawn) [Example 26, 1-((N Methylamino)methyl-N-(2-(2-thienyl)ethyl))6,8-dimethoxy tetralin hydrochloride] — 3.2-fold lower, 175 nM
- COc1ccc2c(c1)C(CN(C)CCc1cccs1)CCC2 (stereo not drawn) [Example 27, 1-((N-Methylamino)methyl-N (2-(2-thienyl)ethyl))7-methoxy tetralin hydrochloride] — within 1.5-fold, 525 nM
- CN(CCc1cccs1)CC1CCCc2c1ccc1c2OCCO1 (stereo not drawn) [Example 30, 1-((N Methylamino)methyl-N-(2-(2-thienyl)ethyl))-5,6-ethylenedioxy tetralin hydrochloride] — within 1.5-fold, 470 nM
- Cc1cc(O)c(O)c2c1C(CN(C)CCc1cccc(F)c1)CCC2 (stereo not drawn) [Example 34, 1-((N-Methylamino)methyl-N (2-(m-fluorophenyl)ethyl))-5,6-dihydroxy-8-methyl tetralin hydrobromide] — 1.7-fold lower, 330 nM
- COc1ccc2c(c1)CCC2CN(C)CCc1cccs1 (stereo not drawn) [Example 37, 1-((N-Methylamino)methyl-N-(2-(2-thienyl)ethyl))-5-methoxy indane hydrochloride] — within 1.5-fold, 645 nM
- CCN(CCc1cccs1)CC1CCCc2cc(OC)ccc21 (stereo not drawn) [Example 41, 1-((N Ethylamino)methyl-N (2-(2-thienyl)ethyl))-6methoxy tetralin hydrochloride] — 1.7-fold higher, 950 nM
- CCN(CCc1cccc(F)c1)CC1CCCc2cc(OC)ccc21 (stereo not drawn) [Example 42, 1-((N Ethylamino)methyl-N-(2-(m-fluorophenyl)ethyl))-6-methoxy tetralin hydrochloride] — 1.9-fold higher, 1050 nM
- CCN(CCc1ccco1)CC1CCCc2cc(OC)ccc21 (stereo not drawn) [Example 43, 1-((N-Ethylamino)methyl-N-(2-(2-furyl)ethyl))-6-methoxy tetralin hydrochloride] — 2.5-fold higher, 1400 nM
- CCN(CCc1ccsc1)CC1CCCc2cc(OC)ccc21 (stereo not drawn) [Example 44, 1-((N-Ethylamino)methyl-N-(2-(3-thienyl)ethyl))-6-methoxy tetralin hydrochloride] — within 1.5-fold, 590 nM
- CCCN(CCc1cccs1)CC1CCCc2cc(OC)ccc21 (stereo not drawn) [Example 58, 1-((N-Propylamino)methyl)-N-(2-(2-thienyl)ethyl))-6-methoxy tetralin hydrochloride] — 3.2-fold higher, 1830 nM
- COc1ccc2c(c1)CCCC2CN(C)CCc1cccc(N)c1 (stereo not drawn) [Example 67, 1-((N-Methylamino)methyl-N-(2-(m-aminophenyl)ethyl))-6-methoxy tetralin dihydrochloride] — 2.1-fold higher, 1170 nM
- CN(CCc1cccc(N)c1)CC1CCCc2cc(O)ccc21 (stereo not drawn) [Example 68, 1-((N-Methylamino)methyl N-(2-(m-aminophenyl)ethyl))-6-hydroxy tetralin dihydrobromide] — 2.1-fold higher, 1170 nM
- CN(CCc1cccc(F)c1)CC1CCCc2ccccc21 (stereo not drawn) [Example 70, 1-((N Methylamino)methyl-N-(2-(mfluorophenyl)ethyl))-tetralin hydrochloride] — within 1.5-fold, 525 nM
- CN(CCc1cccc(O)c1)CC1CCCc2cc(O)ccc21 (stereo not drawn) [Example 82, 1-((N-Methylamino)methyl-N-(2-(m-hydroxyphenyl)ethyl))-6-hydroxy tetralin hydrochloride] — within 1.5-fold, 495 nM
- COc1ccc2c(c1)CCCC2CN(C)CCc1cccc(O)c1 (stereo not drawn) [Example 83, 1-((N-Methylamino)methyl-N-(2-(m-hydroxyphenyl)ethyl))-6-methoxy tetralin hydrochloride] — 1.7-fold higher, 955 nM
- CN(CCc1cccc(F)c1)CC1CCCc2c1ccc(O)c2O (stereo not drawn) [Example 85, 1-((N-Methylamino)methyl-N-(2-(m-fluorophenyl)ethyl))-5,6-dihydroxy tetralin hydrochloride] — 2.2-fold lower, 260 nM
- COc1ccc2c(c1OC)CCCC2CN(C)CCc1cccs1 (stereo not drawn) [Example 86, 1-((N-Methylamino)methyl-N-(2-(2-thienyl)ethyl))-5,6-dimethoxy tetralin hydrochloride] — within 1.5-fold, 495 nM
- CN(CCc1cccs1)CC1CCCc2c1ccc(O)c2O (stereo not drawn) [Example 87, 1-((N-Methylamino)methyl-N-(2-(2-thienyl)ethyl))-5,6-dihydroxy tetralin hydrochloride] — within 1.5-fold, 444 nM
- CN(CCc1ccccc1)CC1CCCc2ccccc21 (stereo not drawn) [Example 88, 1-((N-Methylamino)methyl-N-(2-phenethyl))-tetralin hydrochloride] — 1.8-fold lower, 315 nM
- CN(CCc1ccccc1)CC1CCCc2cc(N)ccc21 (stereo not drawn) [Example 114, 1-((N-Methylaminomethyl-N-(2-phenylethyl))-6-aminotetralindihydrochloride] — within 1.5-fold, 725 nM
- CN(CCc1cccs1)CC1CCCc2c1ccc(O)c2I (stereo not drawn) [Example 115, 1-((N-Methylamino)methyl-N-(2-(2-thienyl)ethyl))-5-iodo-6-hydroxy tetralin hydrochloride] — within 1.5-fold, 530 nM
- COc1cc2c(cc1C)C(CN(C)CCc1ccco1)CCC2 (stereo not drawn) [Example 128, 1-((N-Methylamino)methyl-N-(2-(2-furyl)ethyl))6-methoxy-7-methyl tetralin hydrochloride] — 1.5-fold higher, 855 nM
- COc1cc2c(cc1F)C(CN(C)CCc1ccco1)CCC2 (stereo not drawn) [Example 141, 1-((N-methylamino)methyl-N-(2-(2-furyl)ethyl))-6-methoxy-7-fluoro tetralin methanesulfonate] — 1.6-fold higher, 880 nM
- c1csc(C2CCN(CC3CCCc4c3ccc3c4OCO3)C2)c1 (stereo not drawn) [Example 144, 5,6-Methylenedioxy-1-(3-(2-thienyl)pyrrolidino-1-methyl) tetralin methanesulfonate] — 2.3-fold lower, 245 nM
- CCN(CCc1cccs1)CC1CCCc2c1ccc1c2OCO1 (stereo not drawn) [Example 164, 1-(N Ethylamino)methyl-N-(2-(2-thienyl)ethyl))-5,6-methylenedioxy tetralin hydrochloride] — 1.7-fold higher, 954 nM
